Test results as given in ChEMBL document CHEMBL3600385 (Bioorg Med Chem Lett, 2015).
Activity calls are given as the source filed them. The rule behind the calls is not given here.

Tests used:
[1] = target: Neuronal acetylcholine receptor subunit alpha-7 (Rattus norvegicus) (UniProt Q05941)
[2] = target: T1, Neuronal acetylcholine receptor subunit alpha-7 (Rattus norvegicus, UniProt Q05941); assay: (§1) Antagonist activity at rat alpha-7 nicotinic acetylcholine receptor expressed in Xenopus oocytes assessed as inhibition of acetylcholine-induced currents preincubated for 10 mins followed by nicotine induction by two-electrode voltage-clamp electrophysiology assay; format: cell-based
[3] = target: Neuronal acetylcholine receptor subunit alpha-7 (Rattus norvegicus) (UniProt Q05941); assay: as §1, with “of nicotine-induced current amplitudes at IC50 for” for “of”, “assay relative to control” for “assay”; format: cell-based
[4] = target: Neuronal acetylcholine receptor subunit alpha-7 (Rattus norvegicus) (UniProt Q05941); assay: Agonist activity at rat alpha-7 nicotinic acetylcholine receptor expressed in Xenopus oocytes assessed as ratio of maximum response to compound to that induced by 1 mM acetylcholine at 1 mM treated for 3 to 4 secs followed by compound washout for 4 mins by two-electrode voltage-clamp electrophysiology assay; format: cell-based
[5] = target: T1, Neuronal acetylcholine receptor subunit alpha-7

T1 sequence (Q05941 whole entry): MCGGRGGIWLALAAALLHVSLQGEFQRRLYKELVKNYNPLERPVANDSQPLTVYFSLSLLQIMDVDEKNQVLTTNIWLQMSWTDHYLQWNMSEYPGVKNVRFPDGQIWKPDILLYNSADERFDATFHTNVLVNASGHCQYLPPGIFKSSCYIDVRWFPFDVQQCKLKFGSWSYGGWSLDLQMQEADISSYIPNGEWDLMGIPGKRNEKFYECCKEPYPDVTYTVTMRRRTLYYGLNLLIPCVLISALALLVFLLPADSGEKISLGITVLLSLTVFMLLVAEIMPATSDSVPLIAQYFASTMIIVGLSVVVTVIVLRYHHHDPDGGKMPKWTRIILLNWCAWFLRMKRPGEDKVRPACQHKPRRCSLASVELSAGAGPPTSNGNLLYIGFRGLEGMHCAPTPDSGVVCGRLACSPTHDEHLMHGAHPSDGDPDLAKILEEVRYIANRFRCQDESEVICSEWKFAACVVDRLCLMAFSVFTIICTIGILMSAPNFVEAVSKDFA
Chain of Neuronal acetylcholine receptor subunit alpha-7 (Rattus norvegicus) (Q05941 whole entry): as above

| SMILES | pEC50 [1] | IC50 [2] [µM] | inhibition [3] [%] | Ratio [4] | EC50 [5] [µM] |
| --- | --- | --- | --- | --- | --- |
| O=C(N[C@@H]1C[N+]2(CCl)CCC1CC2)c1ccccc1F | inactive | 39.3 | 33.2 | – | – |
| COc1cc(N)c(Cl)cc1C(=O)NC1CN2CCC1CC2 (stereo not drawn) [ZACOPRIDE] | – | 7.04 | 4.37 | 0.038 | – |
| O=C(N[C@H]1C[N+]2(CCl)CCC1CC2)c1ccccc1F | – | 28.4 | 65.7 | 0.021 | – |
| O=C(NC1CN2CCC1CC2)c1ccccc1F (stereo not drawn) | – | 8.07 | 26.5 | 0.19 | 56.5 |
